Experimental data: patent publication US8536202B2, “Triazole-substituted anthranilamides as pesticides” (Bayer Cropscience AG, priority 2010, dated 2013)
Where two headings read alike, the source gives them in different places.

How the values were obtained:
[1] = test system: larvae of the mustard beetle (Phaedon cochleariae); test: Phaedon test (PHAECO spray treatment); assay type: in vivo; conditions: 168 h, read-out: activity in %
How it was run: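 Compound dissolved in acetone/dimethylformamide with alkylaryl polyglycol ether emulsifier, then diluted with emulsifier-containing water to test concentration for spray treatment of Phaedon cochleariae larvae. Activity scored after 7 days as % larvae killed (100% = all dead, 0% = none).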

[2] = test system: caterpillars of the armyworm (Spodoptera frugiperda); test: Spodoptera frugiperda test (SPODFR spray treatment); assay type: in vivo; conditions: 168 h, read-out: activity in %
How it was run: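 Maize leaf discs sprayed with compound diluted in emulsifier-containing water (acetone/DMF solvent, alkylaryl polyglycol ether emulsifier), dried, then infested with armyworm caterpillars. Kill scored after 7 days as % mortality, 100% = all caterpillars dead, 0% = none.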

[3] = log P determination by HPLC on reversed-phase columns (EEC Directive 79/831 Annex V.A8); assay type: physicochemical; conditions: pH 2.7
How it was run: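 log P from reversed-phase LC-MS retention at pH 2.7, 0.1% formic acid water/acetonitrile gradient 10–95% acetonitrile. Calibrated against C3–C16 unbranched alkan-2-ones, interpolating linearly between adjacent alkanones.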

[4] = test system: green peach aphid (Myzus persicae); test: Myzus test (MYZUPE spray treatment), Use Example 4; assay type: in vivo; conditions: 144 h, 100 g/ha, after 6 days, read-out: activity in %
Protocol: Solvents: 78 parts by weight of acetone • • 1.5 parts by weight of dimethylformamide
Emulsifier: 0.5 part by weight of alkylaryl polyglycol ether
An appropriate preparation of active compound is prepared by mixing 1 part by weight of active compound with the stated amounts of solvents and emulsifier and diluting the concentrate with emulsifier-containing water to the desired concentration.
Leaf discs of Chinese cabbage (Brassica pekinensis) infested by all stages of the green peach aphid (Myzus persicae) are sprayed with a preparation of active compound at the desired concentration.
After 6 days, the activity in % is ascertained. Here, 100% means that all of the aphids have been killed; 0% means that no aphids have been killed.

[5] = reversed-phase C18 HPLC column, HPLC on reversed-phase columns (C 18), EEC Directive 79/831 Annex V.A8, read-out: logP
[6] = HPLC on reversed-phase columns (C 18), EEC Directive 79/831 Annex V.A8, read-out: logP

| SMILES | pest or weed control at 100 g/ha ([1]; 100 g/ha, after 7 days) [%] | pest or weed control at 100 g/ha ([2]; 100 g/ha, after 7 days) [%] | chromatographic logP [3, 5] | pest or weed control at 100 g/ha [4] [%] | chromatographic logP [3] | pest or weed control at 100 g/ha [1] [%] | pest or weed control at 100 g/ha [2] [%] | chromatographic logP [3, 6] |
| --- | --- | --- | --- | --- | --- | --- | --- | --- |
| CNC(=O)c1cc(C#N)cc(C)c1NC(=O)c1cc(Cn2cc(C(F)(F)F)nn2)nn1-c1ncccc1Br [Example 5] | 100 | 100 | 2.66 | 100 |  |  |  |  |
| Cc1cc(C#N)cc(C(=O)NC(C)C)c1NC(=O)c1cc(Cn2cc(C(F)(F)F)nn2)nn1-c1ncccc1Br [Example 6] | 100 | 100 | 3.11 | 90 |  |  |  |  |
| CCNC(=O)c1cc(C#N)cc(C)c1NC(=O)c1cc(Cn2cc(C(F)(F)F)nn2)nn1-c1ncccc1Br [Example 8] | 100 | 100 | 2.88 | 80 |  |  |  |  |
| CNC(=O)c1cc(C#N)cc(C)c1NC(=O)c1cc(Cn2ncc(C(F)(F)F)n2)nn1-c1ncccc1Br [Example 9] | 100 | 100 | 2.33 | 100 |  |  |  |  |
| Cc1cc(C#N)cc(C(=O)NC2CC2)c1NC(=O)c1cc(Cn2ncc(C(F)(F)F)n2)nn1-c1ncccc1Br [Example 11] | 100 | 100 | 2.55 | 100 |  |  |  |  |
| CCNC(=O)c1cc(C#N)cc(C)c1NC(=O)c1cc(Cn2ncc(C(F)(F)F)n2)nn1-c1ncccc1Br [Example 12] | 100 | 100 | 2.53 | 100 |  |  |  |  |
| CNC(=O)c1cc(Cl)cc(C)c1NC(=O)c1cc(Cn2ncc(C3CC3)n2)nn1-c1ncccc1Cl [Example 21] | 100 | 100 |  | 100 | 2.85 |  |  |  |
| Cc1cc(C#N)cc(C(=O)NC(C)C)c1NC(=O)c1cc(Cn2cc(C(F)(F)F)nn2)nn1-c1ncccc1Cl [Example 181] |  | 100 |  | 90 | 2.67 |  |  |  |
| Cc1cc(C#N)cc(C(=O)NC2CC2)c1NC(=O)c1cc(Cn2ncc(C(F)(F)C(F)(F)C(F)(F)F)n2)nn1-c1ncccc1Cl [Example 376] |  |  |  |  |  | 100 | 100 | 3.63 |
| CNC(=O)c1cc(I)cc(C)c1NC(=O)c1cc(Cn2ncc(C(F)(F)C(F)(F)C(F)(F)F)n2)nn1-c1ncccc1Cl [Example 377] |  |  |  |  |  | 100 | 100 | 4 |
| Cc1cc(Cl)cc(C(=O)NC(C)C)c1NC(=O)c1cc(Cn2ncc(C(F)(F)C(F)(F)C(F)(F)F)n2)nn1-c1ncccc1Cl [Example 378] |  |  |  |  |  | 100 | 100 | 4.27 |
| Cc1cc(Cl)cc(C(=O)NC(C)C2CC2)c1NC(=O)c1cc(Cn2ncc(C(F)(F)C(F)(F)C(F)(F)F)n2)nn1-c1ncccc1Cl (stereo not shown) [Example 379] |  |  |  |  |  | 100 | 100 | 4.57 |
| Cc1cc(I)cc(C(=O)NCC2CC2)c1NC(=O)c1cc(Cn2ncc(C(F)(F)C(F)(F)C(F)(F)F)n2)nn1-c1ncccc1Cl [Example 382] |  |  |  |  |  | 100 | 100 | 4.59 |
| Cc1cc(I)cc(C(=O)NC(C)(C)C)c1NC(=O)c1cc(Cn2ncc(C(F)(F)C(F)(F)C(F)(F)F)n2)nn1-c1ncccc1Cl [Example 385] |  |  |  |  |  | 100 | 100 | 4.89 |
| Cc1cc(I)cc(C(=O)NC(C)C2CC2)c1NC(=O)c1cc(Cn2ncc(C(F)(F)C(F)(F)C(F)(F)F)n2)nn1-c1ncccc1Cl (stereo not shown) [Example 386] |  |  |  |  |  | 100 | 100 | 4.82 |
| CSC[C@H](C)NC(=O)c1cc(I)cc(C)c1NC(=O)c1cc(Cn2nc(C(F)(F)F)c(C(F)(F)F)n2)nn1-c1ncccc1Cl [Example 388] | 100 | 100 |  |  | 4.64 |  |  |  |
| CCNC(=O)c1cc(I)cc(C)c1NC(=O)c1cc(Cn2nc(C(F)(F)F)c(C(F)(F)F)n2)nn1-c1ncccc1Cl [Example 389] | 100 | 100 |  |  | 4.23 |  |  |  |
